Measured values from US20220151995A1, “PHARMACEUTICAL COMPOSITION FOR TREATING CANCER AND SUPPRESSING METASTASIS, CONTAINING SULFONAMIDE-BASED COMPOUND AS ACTIVE INGREDIENT” (EXOSTEMTECH CO., LTD, priority 2015, published 2022).

Legend:
[1] = system: MDA-MB231-CD63-GFP(+) cells; assay: Exosome (CD63-GFP) secretion screening of FDA-approved drugs, supernatant fluorescence; assay type: cell-based; conditions: 24 h, fluorescence 485/538 nm, % of control group, read-out: exosome inhibition rate (relative fluorescence, of control group)
Description: Among a total of 1,163 FDA-approved drug libraries, drugs effective in inhibiting exosome secretion of the MDA-MB231 triple negative breast cancer cell line were selected by carrying out screening twice. Sulfisoxazole, Sulfadiazine, Sulfathiazole and Ambrisentan, all of which are ETA receptor antagonists, were selected.
The percentage of inhibition rate of exosome secretion was evaluated for each of the selected ETA receptor antagonists. Briefly, MDA-MB231-CD63-GFP(+) cells were incubated with 30 pM of 1,163 individual FDA-approved drugs for 24 h. The fluorescence of each supernatant was measured at 485 nm (excitation) and 538 nm (emission) using a fluorescence microplate reader. Y-axis indicates the inhibition rate of exosome (CD63-GFP), and X-axis indicates the number of FDA-approved drugs.

MDA-MB231 cells [2] = assay: Cancer cell migration, scratch assay (T-scratch); assay type: cell-based; conditions: 24 hours, medium containing 2% serum; T-scratch quantification
Description: MDA-MB231 cells were seeded in a 24-well plate at 2×10^5 cells/well, and then incubated for 24 hours for the proliferation to a monolayer. After the incubation for 24 hours, the monolayer was straightly scratched with a yellow tip. The cells were washed with PBS to remove floating cells, and then photographed (0 h). Thereafter, a drug was added to a medium containing 2% serum, and then the cells were treated with the medium, and then incubated for 24 hours (24 h). After 24 hours, the cells were photographed for the same site to compare cell migration. The measurement of cell migration was carried out using T-scratch program.

MDA-MB231 cells [3] = assay: Matrigel invasion assay; assay type: cell-based; conditions: 25, 50, 100 and 200 μM, 48 hours, compared with the controls
Description: A 8[…] insert was placed in a 24-well plate, coated with serum-free medium and Matrigel, and then solidified at 37 for 4 hours. Then, 800µ1 of 10% FBS was added to the lower chamber and 1×10^4 MDA-MB231 cells were added to the upper chamber, followed by treatment with sulfisoxazole or sulfadoxine at 25, 50, 100, and 200µM. After 48 hours, the Matrigel in the insert was removed, followed by washing with PBS, and then the lower chamber was fixed with 60% ethanol, and then stained with crystal violet.

MDA-MB231 cells [4] = assay: Cancer cell proliferation, MTT assay; assay type: cell-based; conditions: 25, 50, 100 and 200 μM; MTT absorbance at 495 nm; compared with the control
Description: After the 12-hour incubation, the cells were treated with sulfisoxazole and sulfadoxine at 25, 50, 100, and 200µM, and then re-treated with the same drugs […]. Thereafter, the cells were treated with MT tetrazolium reagent for each time, and then incubated for […]. After 4 hours, the cell proliferation effect was investigated by measuring the absorbance at 495 nm of reduced MTT formazan (3-(4,5-dimethylthiazol-2-yl)-2,5-diphenyl-tetrazolium bromide). The docetaxel (10µM), which is an anticancer drug currently in use, was used as a control.

A549 = assay: Cancer exosome secretion, number of exosomes by Nanosight; assay type: cell-based; conditions: SFX 100 μM and 200 μM, one day; compared to control (DMSO)
Description: After seeding 2×10^6 cells of A549 in T-flask, they were stabilized with growth medium for 24 hours. To isolate cancer exosomes, T-flask was treated with SFX at different concentrations (0, 100, 200 μM), and then lung cancer cells were cultured for one day. After the cell culture medium was collected and filtered, exosomes were separated through ultracentrifugation, and the number of exosomes was determined with Nanosight (FIG. 11).

A549 cells = assay: Cancer cell proliferation, WST-1 assay; assay type: cell-based; conditions: 100 μM and 200 μM daily, 72 hours; compared to control (DMSO)
Description: A549 cells were seeded in a 12-well plate at a concentration of 3×10^4 cells/well and then stabilized with growth medium for 24 hours. To evaluate cancer cell growth inhibition, SFX was treated daily at different concentrations (0, 100, 200 μM). After 72 hours, cell growth rate was determined by WST-1 assay (FIG. 13).

LLC1 tumor cells = system: LLC1 tumor cells
Description: The cancer animal models were prepared on the last day acclimatization. C57BL/6 mice used for the production of LLC1 tumor mouse model were used as experimental animals, and after inoculation of LLC1 tumor cells in the mouse thigh at a concentration of 5×10^5 cells/head, SFX was administered from the time when the tumor volume reached 50 mm^3.
After uniformly mixing the SFX solution prepared for each concentration by vortexing, a sonde for mice was connected to a 1 mL syringe to fill the solution, and 100 μL of the solution was orally administered to each mouse in each group.
Tumor volume was measured daily. The volume of the tumor was measured using a vernier caliper on the major axis and the minor axis, and the height was calculated as ½ the size of the minor axis.
[Tumor volume (mm3)=major axis (mm)×minor axis (mm)×½ of the minor axis]
Mouse body weight was measured every other day from the start of the test, and was measured after oral administration of the drug.

Compound	activity at 30 pM [1]	migration of cancer cells (MDA-MB231 cells [2])	invasion of cancer cells (MDA-MB231 cells [3])	proliferation of MDA-MB231 cell lines (MDA-MB231 cells [4])	other results
COC(c1ccccc1)(c1ccccc1)[C@H](Oc1nc(C)cc(C)n1)C(=O)O [ambrisentan, Ambrisentan]	101%				
Nc1ccc(S(=O)(=O)Nc2ncccn2)cc1 [sulfadiazine, Sulfadiazine]	89.9%				
COc1ncnc(NS(=O)(=O)c2ccc(N)cc2)c1OC [sulfadoxine]		inhibited dependent on the concentration	significantly inhibited	significantly inhibited	
Nc1ccc(S(=O)(=O)Nc2nccs2)cc1 [sulfathiazole, Sulfathiazole]	93.8%				
Cc1noc(NS(=O)(=O)c2ccc(N)cc2)c1C [sulfisoxazole]	60.8%	inhibited dependent on the concentration	significantly inhibited	inhibited dependent on the concentration	level of cancer exosome secretion (A549): significantly reduced; A549 cell growth (A549 cells): inhibited in a concentration-dependent manner; tumor weight (LLC1 tumor cells; 200 and 400 mg/kg orally, end of the experiment, compared to vehicle group): tendency to decrease; mice that died (survival) (LLC1 tumor cells; oral SFX administration for each concentration): no mice that died; body weight of the animals (LLC1 tumor cells; oral SFX administration, measured every other day): did not show a significant change
